The text below walks through data of patent publication US12708116B2, “Herbicidal compositions comprising 2,4-D” (BASF SE, priority 2023, dated 2026).

Common to all, as to assay: Post-emergence application in field trials
The test system of one assay is HORVW. The following applies: growth stage 23-29, height 20-25 cm.
The subject of a further assay is ZEAMX. The following applies: growth stage 15-16.
The subject of the next assay is ECHCG. It is filed as in vivo, Echinochloa crus-galli.
A further assay relates to AMAPA. The following applies: 14 DAT, growth stage 12-24, height 5-30 cm, water volume 140 l/ha.
In another assay the test system is SETVI. It counts as in vivo, Setaria viridis. The following applies: 15 DAT; g ai/ha A-1 12.5, B-5 1066, C-10 840; growth stage 13-19; height 2-18 cm; water volume 140 l/ha.
For the next assay, the system named is DIGSA.
In a further assay the test system is SETVE. The following applies: Example 6, g ai/ha A-1 12.5, B-5 1066, C-11 400, growth stage 21-23, height 10-15 cm.
The test system of a further assay is CYPES. The following applies: 21 DAT, water volume 140 l/ha.
In the next assay the test system is DATST. The following applies: Example 6; 21 DAT; g ai/ha A-1 12.5, B-5 1066, C-11 400.
Where [1] appears, read: Example 7, 28 DAT, g ai/ha A-1 12.5, B-4 1066, C-11 400.
Where [2] appears, read: Example 9, 21 DAT, g ai/ha A-1 12.5, B-4 1066, C-12 252.
Where [3] appears, read: Example 11, 21 DAT, g ai/ha A-1 12.5, B-4 1066, C-4 12.5.
Where [4] appears, read: Example 7, 28 DAT, g ai/ha A-1 12.5, B-4 1066, C-11 400, height 50-60 cm.
Setting [5] is: Example 9, 28 DAT, g ai/ha A-1 12.5, B-4 1066, C-12 252, height 50-60 cm.
Where [6] appears, read: Example 11, 21 DAT, g ai/ha A-1 12.5, B-4 1066, C-4 12.5, height 50-60 cm.
[7] abbreviates: Example 7, 28 DAT, g ai/ha A-1 12.5, B-4 1066, C-11 400, growth stage 23-30, height 15-20 cm.
Where [8] appears, read: Example 9, 28 DAT, g ai/ha A-1 12.5, B-4 1066, C-12 252, growth stage 23-30, height 15-20 cm.

Turning to `CNC.O=C(O)COc1ccc(Cl)cc1Cl` [B-4, 2,4-D-dimethylammonium], the “% Herbicidal activity” value is reported as 0% with HORVW (Example 5, 7 DAT, g ai/ha A-1 12.5, B-4 1066); 0% in the assay on HORVW (setting [1]); 0% with HORVW (setting [2]); 0% in the assay on HORVW (setting [3]); 0% in the assay on ZEAMX (Example 5, 21 DAT, g ai/ha A-1 12.5, B-4 1066, height 50-60 cm); 0% with ZEAMX (setting [4]). The “% Herbicidal activity” value with ZEAMX (setting [5]), in the assay with ZEAMX (setting [6]), in the assay on ECHCG (setting [7]) and with ECHCG (setting [8]) was 0% in each case.
`C#CCN1C(=O)C(F)(F)Oc2cc(F)c(-n3c(=O)n(C)c(=S)n(C)c3=O)cc21` [C-4, trifludimoxazin]: the “% Herbicidal activity” value was 30% in the assay on HORVW (Example 10, 21 DAT, g ai/ha A-1 12.5, B-5 1066, C-4 12.5); 20% in the assay on HORVW (setting [3]); 30% in the assay with ZEAMX (setting [6]); 30% in the assay on ECHCG (Example 10, 21 DAT, g ai/ha A-1 12.5, B-5 1066, C-4 12.5, growth stage 23-30, height 15-20 cm).
On to `O=C(O)CNCP(=O)(O)O` [C-10, glyphosate-potassium], for which the “% Herbicidal activity” value was 22% in the assay on AMAPA (g ai/ha A-1 12.5, B-5 1066, C-10 840); 22% in the assay on AMAPA (g ai/ha A-1 25, B-5 1066, C-10 840); 90% with ECHCG (13 DAT, g ai/ha A-1 12.5, B-5 1066, C-10 840, growth stage 21-26, height 15-30 cm, water volume 187 l/ha); 90% with ECHCG (13 DAT, g ai/ha A-1 25, B-5 1066, C-10 840, growth stage 21-26, height 15-30 cm, water volume 187 l/ha); 90% in the assay on ECHCG (13 DAT, g ai/ha A-1 50, B-5 1066, C-10 840, growth stage 21-26, height 15-30 cm, water volume 187 l/ha); 93% with SETVI. Also, the “% Herbicidal activity” value in the assay with DIGSA (15 DAT, g ai/ha A-1 12.5, B-5 1066, C-10 840, growth stage 13-19, height 2-13 cm, water volume 140 l/ha) is listed as 93%.
`CP(=O)(O)CCC(N)C(=O)O` (centres unmarked) [C-11, glufosinate-ammonium]: the “% Herbicidal activity” value with SETVE (7 DAT) came out at 55%; with SETVE (21 DAT), 40%; in the assay on HORVW (Example 6, 28 DAT, g ai/ha A-1 12.5, B-5 1066, C-11 400) it was 30%; in the assay with HORVW (setting [1]), 10%; with ZEAMX (Example 6, 7 DAT, g ai/ha A-1 12.5, B-5 1066, C-11 400, height 25-30 cm), 40%; with ZEAMX (Example 6, 28 DAT, g ai/ha A-1 12.5, B-5 1066, C-11 400, height 50-60 cm) it was 70%. Besides, the “% Herbicidal activity” value in the assay on ZEAMX (setting [4]) is recorded as 40%; in the assay with ECHCG (Example 6, 7 DAT, g ai/ha A-1 12.5, B-5 1066, C-11 400, growth stage 23-30, height 15-20 cm), 30%; in the assay with ECHCG (Example 6, 28 DAT, g ai/ha A-1 12.5, B-5 1066, C-11 400, growth stage 23-30, height 15-20 cm) it was 70%; in the assay with ECHCG (setting [7]) it was 60%; in the assay on CYPES (g ai/ha A-1 12.5, B-5 1066, C-11 655), 18%; in the assay with CYPES (g ai/ha A-1 50, B-5 1066, C-11 655), 18%. The “% Herbicidal activity” value with DIGSA (21 DAT, g ai/ha A-1 12.5, B-5 1066, C-11 655, height 2-8 cm, water volume 140 l/ha) amounted to 49%; in the assay with DIGSA (21 DAT, g ai/ha A-1 25, B-5 1066, C-11 655, height 2-8 cm, water volume 140 l/ha), 49%; in the assay on DIGSA (21 DAT, g ai/ha A-1 50, B-5 1066, C-11 655, height 2-8 cm, water volume 140 l/ha) it was 49%; in the assay on DIGSA (Example 6, 7 DAT, g ai/ha A-1 12.5, B-5 1066, C-11 400, growth stage 21-22, height 15-20 cm) it was 25%; in the assay on DIGSA (Example 6, 21 DAT, g ai/ha A-1 12.5, B-5 1066, C-11 400, growth stage 21-22, height 15-20 cm), 20%; with DATST, 50%.
As for `CP(=O)(O)CC[C@H](N)C(=O)O.N` [C-12, glufosinate-P-ammonium], the “% Herbicidal activity” value in the assay on HORVW (Example 8, 21 DAT, g ai/ha A-1 12.5, B-5 1066, C-12 252) is given as 20%; with HORVW (setting [2]), 60%; in the assay with ZEAMX (Example 8, 28 DAT, g ai/ha A-1 12.5, B-5 1066, C-12 252, height 50-60 cm) it was 70%; in the assay on ZEAMX (setting [5]), 60%; in the assay with ECHCG (Example 8, 7 DAT, g ai/ha A-1 12.5, B-5 1066, C-12 252, growth stage 23-30, height 15-20 cm), 50%; in the assay on ECHCG (Example 8, 21 DAT, g ai/ha A-1 12.5, B-5 1066, C-12 252, growth stage 23-30, height 15-20 cm), 70%. Further, the “% Herbicidal activity” value is listed as 60% in the assay on ECHCG (Example 8, 28 DAT, g ai/ha A-1 12.5, B-5 1066, C-12 252, growth stage 23-30, height 15-20 cm) and 60% in the assay on ECHCG (setting [8]).
